For the assay, the system named is MV-4-11 cells. Kind of assay: Gene expression microarray analysis (Affymetrix PrimeView) and GSEA. Conditions: ProbeSet 11749551_a_at; LIST B. Set-up: RFU PODN (11730768_x_at) / Fold change /veh PODN (11730768_x_at) / RFU LINC00158 (11744669_a_at) / Fold change /veh LINC00158 (11744669_a_at) / RFU DUSP10 (11751237_a_at) / Fold change /veh DUSP10 (11751237_a_at) / RFU ID3 (11757404_x_at) / Fold change /veh ID3 (11757404_x_at) / RFU PLEKHG5 (11737974_s_at) / Fold change /veh PLEKHG5 (11737974_s_at) / RFU LRRC4B (11730491_at) / Fold change /veh LRRC4B (11730491_at) / RFU GIMAP4 (11747438_a_at) / Fold change /veh GIMAP4 (11747438_a_at) / RFU KRT8 (11758183_x_at) / Fold change /veh KRT8 (11758183_x_at) / RFU CNN1 (11734310_a_at) / Fold change /veh CNN1 (11734310_a_at) / RFU VPS37D (11726825_at) / Fold change /veh VPS37D (11726825_at) / RFU C10orf10 (11716522_x_at) / Fold change /veh C10orf10 (11716522_x_at) / RFU KIR2DL2 /// KIR2DL4 /// KIR2DL5A /// KIR2DL5B /// KIR2DS1 /// KIR2DS2 /// KIR2DS3 /// KIR2DS4 /// KIR3DL3 /// KIR3DL3 /// KIR3DS1 (11738374_at) / Fold change /veh KIR2DL2 /// KIR2DL4 /// KIR2DL5A /// KIR2DL5B /// KIR2DS1 /// KIR2DS2 /// KIR2DS3 /// KIR2DS4 /// KIR3DL3 /// KIR3DL3 /// KIR3DS1 (11738374_at) / RFU C1QL1 (11718748_at) / Fold change /veh C1QL1 (11718748_at) / RFU TMPRSS4 (11747572_a_at) / Fold change /veh TMPRSS4 (11747572_a_at) / RFU HAMP (11756126_x_at) / Fold change /veh HAMP (11756126_x_at) / RFU RNFT2 (11725882_a_at) / Fold change /veh RNFT2 (11725882_a_at) / RFU NR4A2 (11747474_a_at) / Fold change /veh NR4A2 (11747474_a_at) / RFU ABCC12 (11746883_a_at) / Fold change /veh ABCC12 (11746883_a_at) / RFU TMEM136 (11760407_x_at) / Fold change /veh TMEM136 (11760407_x_at) / RFU CLDN22 /// WWC2 (11732394_at) / Fold change /veh CLDN22 /// WWC2 (11732394_at) / RFU HLA-DPB1 (11760878_x_at) / Fold change /veh HLA-DPB1 (11760878_x_at) / RFU SPINT1 (11716480_a_at) / Fold change /veh SPINT1 (11716480_a_at) / RFU GAP43 (11754022_s_at) / Fold change /veh GAP43 (11754022_s_at) / RFU A4GNT (11735810_at) / Fold change /veh A4GNT (11735810_at) / RFU PRB3 (11715151_x_at) / Fold change /veh PRB3 (11715151_x_at) / RFU TUBB4B (11761932_at) / Fold change /veh TUBB4B (11761932_at) / RFU CAPN14 (11732068_a_at) / Fold change /veh CAPN14 (11732068_a_at) / RFU TMCC2 (11721928_a_at) / Fold change /veh TMCC2 (11721928_a_at) / RFU IRGQ (11745062_a_at) / Fold change /veh IRGQ (11745062_a_at) / RFU FAM174B (11720279_a_at) / Fold change /veh FAM174B (11720279_a_at) / RFU TMPRSS4 (11748680_a_at) / Fold change /veh TMPRSS4 (11748680_a_at) / RFU FAM212B (11763350_a_at) / Fold change /veh FAM212B (11763350_a_at) / RFU PLEKHG5 (11743358_a_at) / Fold change /veh PLEKHG5 (11743358_a_at) / RFU ZSCAN30 (11745921_a_at) / Fold change /veh ZSCAN30 (11745921_a_at) / RFU CMKLR1 (11741424_a_at) / Fold change /veh CMKLR1 (11741424_a_at) / RFU LOC101060620 /// MAPK8IP1 (11723275_at) / Fold change /veh LOC101060620 /// MAPK8IP1 (11723275_at) / RFU SPTSSB (11747773_x_at) / Fold change /veh SPTSSB (11747773_x_at) / RFU PRSS12 (11739890_at) / Fold change /veh PRSS12 (11739890_at) / RFU BIN1 (11741810_x_at) / Fold change /veh BIN1 (11741810_x_at) / RFU WNT11 (11732464_a_at) / Fold change /veh WNT11 (11732464_a_at) / RFU C10orf10 (11716521_a_at) / Fold change /veh C10orf10 (11716521_a_at) / RFU C5orf56 (11738089_at) / Fold change /veh C5orf56 (11738089_at) / RFU CYB561 (11721691_x_at) / Fold change /veh CYB561 (11721691_x_at) / RFU ANKRD19P (11752326_a_at) / Fold change /veh ANKRD19P (11752326_a_at) / RFU OR2T12 /// OR2T33 /// OR2T8 (11738714_s_at) / Fold change /veh OR2T12 /// OR2T33 /// OR2T8 (11738714_s_at) / RFU VCAN (11748164_a_at) / Fold change /veh VCAN (11748164_a_at) / RFU JSRP1 (11732532_at) / Fold change /veh JSRP1 (11732532_at) / RFU KRTAP10-11 (11738290_x_at) / Fold change /veh KRTAP10-11 (11738290_x_at) / RFU MYO3A (11730013_a_at) / Fold change /veh MYO3A (11730013_a_at) / RFU EBF3 (11725865_a_at) / Fold change /veh EBF3 (11725865_a_at) / RFU CAMK2N1 (11719241_x_at) / Fold change /veh CAMK2N1 (11719241_x_at) / RFU C5orf56 (11738088_a_at) / Fold change /veh C5orf56 (11738088_a_at) / RFU OLFML3 (11715873_a_at) / Fold change /veh OLFML3 (11715873_a_at) / RFU LOC100653217 /// NTM (11731650_a_at) / Fold change /veh LOC100653217 /// NTM (11731650_a_at) / RFU MAPK11 (11762145_a_at) / Fold change /veh MAPK11 (11762145_a_at) / RFU FIZ1 (11724087_x_at) / Fold change /veh FIZ1 (11724087_x_at) / RFU OASL (11726364_x_at) / Fold change /veh OASL (11726364_x_at) / RFU SOX15 (11748057_x_at) / Fold change /veh SOX15 (11748057_x_at) / RFU CD79A (11719716_a_at) / Fold change /veh CD79A (11719716_a_at) / RFU HIST1H1D (11736915_at) / Fold change /veh HIST1H1D (11736915_at) / RFU CASKIN2 (11723855_a_at) / Fold change /veh CASKIN2 (11723855_a_at) / RFU LOC730098 (11760151_x_at) / Fold change /veh LOC730098 (11760151_x_at) / RFU OR4N2 (11742367_at) / Fold change /veh OR4N2 (11742367_at) / RFU PRRT2 (11749266_a_at) / Fold change /veh PRRT2 (11749266_a_at) / RFU SNX32 (11753110_a_at) / Fold change /veh SNX32 (11753110_a_at) / RFU CDHR5 (11726645_a_at) / Fold change /veh CDHR5 (11726645_a_at) / RFU RCAN1 (11760418_a_at) / Fold change /veh RCAN1 (11760418_a_at) / RFU FAM167A (11723789_a_at) / Fold change /veh FAM167A (11723789_a_at) / RFU FAM26E (11764081_at) / Fold change /veh FAM26E (11764081_at) / RFU ISYNA1 (11749810_s_at) / Fold change /veh ISYNA1 (11749810_s_at) / RFU ACY1 (11761880_at) / Fold change /veh ACY1 (11761880_at) / RFU 11764098_at / Fold change /veh 11764098_at / RFU SAMD14 (11745864_x_at) / Fold change /veh SAMD14 (11745864_x_at) / RFU NPB (11741838_a_at) / Fold change /veh NPB (11741838_a_at) / RFU TMPRSS6 (11731388_a_at) / Fold change /veh TMPRSS6 (11731388_a_at) / RFU KRTAP10-2 (11738614_at) / Fold change /veh KRTAP10-2 (11738614_at) / RFU ARHGAP8 /// PRR5-ARHGAP8 (11727945_x_at) / Fold change /veh ARHGAP8 /// PRR5-ARHGAP8 (11727945_x_at) / RFU KRTAP5-7 /// NADSYN1 (11734609_at) / Fold change /veh KRTAP5-7 /// NADSYN1 (11734609_at) / RFU RASL12 (11751679_a_at) / Fold change /veh RASL12 (11751679_a_at) / RFU CDKN2B (11736163_a_at) / Fold change /veh CDKN2B (11736163_a_at) / RFU PRF1 (11729649_at) / Fold change /veh PRF1 (11729649_at) / RFU, ZNF638 /// ZNF638-IT1 / Fold change vs veh, ZNF638 /// ZNF638-IT1 / RFU, PANK3 / Fold change vs veh, PANK3 / RFU, SH3YL1 / Fold change vs veh, SH3YL1 / RFU, ZEB2 / Fold change vs veh, ZEB2 / RFU, NRIP1 / Fold change vs veh, NRIP1 / RFU, PTTG1IP / Fold change vs veh, PTTG1IP / RFU, CAPN2 / Fold change vs veh, CAPN2 / RFU, MED14 / Fold change vs veh, MED14 / RFU, SNORA58 / Fold change vs veh, SNORA58 / RFU, C1orf63 / Fold change vs veh, C1orf63 / RFU, LRRFIP1 / Fold change vs veh, LRRFIP1 / RFU, NDUFAF7 / Fold change vs veh, NDUFAF7 / RFU, SLC12A2 / Fold change vs veh, SLC12A2 / RFU, IBTK / Fold change vs veh, IBTK / RFU, ESF1 / Fold change vs veh, ESF1 / Fold change vs veh, TMEM50B / RFU, TAOK1 / Fold change vs veh, TAOK1 / RFU, ACBD3 / Fold change vs veh, ACBD3 / RFU, TMA16 / Fold change vs veh, TMA16 / RFU, RWDD3 / Fold change vs veh, RWDD3 / RFU, BCAT1 / Fold change vs veh, BCAT1 / RFU, EDEM3 / Fold change vs veh, EDEM3 / RFU, TMEM33 / Fold change vs veh, TMEM33 / RFU, WDR75 / Fold change vs veh, WDR75 / RFU, AHCTF1 / Fold change vs veh, AHCTF1 / RFU, TFRC / Fold change vs veh, TFRC / RFU, ZDHHC17 / Fold change vs veh, ZDHHC17 / RFU, NOM1 / Fold change vs veh, NOM1 / RFU, ARL8B / Fold change vs veh, ARL8B / RFU, ZBTB11 / Fold change vs veh, ZBTB11 / RFU, TAMM41 / Fold change vs veh, TAMM41 / RFU, KIAA1704 /// LOC100996395 / Fold change vs veh, KIAA1704 /// LOC100996395 / RFU, ING1 / Fold change vs veh, ING1 / RFU, TRMT61B / Fold change vs veh, TRMT61B / RFU, FUBP3 / Fold change vs veh, FUBP3 / RFU, TP53 / Fold change vs veh, TP53 / RFU, TNKS2 / Fold change vs veh, TNKS2 / RFU, ZFP14 / Fold change vs veh, ZFP14 / RFU, ACTR2 / Fold change vs veh, ACTR2 / RFU, PPP3R1 / Fold change vs veh, PPP3R1 / RFU, PIK3R1 / Fold change vs veh, PIK3R1 / RFU, HNRNPA1 / Fold change vs veh, HNRNPA1 / RFU, RNF170 / Fold change vs veh, RNF170 / RFU, ZNF28 / Fold change vs veh, ZNF28 / RFU, RNGTT / Fold change vs veh, RNGTT / RFU, OGT / Fold change vs veh, OGT / RFU, BRD1 / Fold change vs veh, BRD1 / RFU, MARS / Fold change vs veh, MARS / RFU, ZNF655 / Fold change vs veh, ZNF655 / RFU, FAHD1 / Fold change vs veh, FAHD1 / RFU, BDP1 / Fold change vs veh, BDP1 / RFU, LRRCC1 / Fold change vs veh, LRRCC1 / RFU, ARID1A / Fold change vs veh, ARID1A / RFU, ZNF146 / Fold change vs veh, ZNF146 / RFU, ZNF330 / Fold change vs veh, ZNF330 / RFU, GPN3 / Fold change vs veh, GPN3 / RFU, C9orf123 / Fold change vs veh, C9orf123 / RFU, N4BP2L2 / Fold change vs veh, N4BP2L2 / RFU, ARFIP1 / Fold change vs veh, ARFIP1 / RFU, FAM179B / Fold change vs veh, FAM179B / RFU, BCL10 / Fold change vs veh, BCL10 / RFU, UHRF1BP1L / Fold change vs veh, UHRF1BP1L / RFU, BET1 / Fold change vs veh, BET1 / RFU, CNOT2 / Fold change vs veh, CNOT2 / RFU, ZNF268 / Fold change vs veh, ZNF268 / Fold change vs veh, ZNF507 / RFU, DGCR2 / Fold change vs veh, DGCR2 / RFU, WDSUB1 / Fold change vs veh, WDSUB1 / Fold change vs veh, HSP90B1 /// MIR3652 / RFU, ADSS / Fold change vs veh, ADSS / RFU, GK / Fold change vs veh, GK / RFU, ZNF148 / Fold change vs veh, ZNF148 / RFU, TAF9 / Fold change vs veh, TAF9 / RFU, SLC1A5 / Fold change vs veh, SLC1A5 / RFU, SLMO2 / Fold change vs veh, SLMO2 / RFU, ABCC4 / Fold change vs veh, ABCC4 / RFU, LOC101060439 /// RAP1B / Fold change vs veh, LOC101060439 /// RAP1B / RFU, RFX7 / Fold change vs veh, RFX7 / RFU, GTPBP10 / Fold change vs veh, GTPBP10 / RFU, CNEP1R1 / Fold change vs veh, CNEP1R1 / RFU, BIVM-ERCC5 /// ERCC5 / Fold change vs veh, BIVM-ERCC5 /// ERCC5 / RFU, ILF3 / Fold change vs veh, ILF3 / RFU 11762660_at / Fold change /veh 11762660_at / RFU VCAN (11757783_s_at) / Fold change /veh VCAN (11757783_s_at) / RFU DDX43 (11728927_at) / Fold change /veh DDX43 (11728927_at) / RFU KRT8 (11758188_x_at) / Fold change /veh KRT8 (11758188_x_at) / RFU NKD1 (11759106_at) / Fold change /veh NKD1 (11759106_at) / RFU SRD5A1 (11742802_a_at) / Fold change /veh SRD5A1 (11742802_a_at) / RFU TPSAB1 /// TPSB2 (11721975_s_at) / Fold change /veh TPSAB1 /// TPSB2 (11721975_s_at) / RFU GSTM3 (11746129_a_at) / Fold change /veh GSTM3 (11746129_a_at) / RFU IL23R (11737362_x_at) / Fold change /veh IL23R (11737362_x_at) / RFU TMEM51 (11727254_a_at) / Fold change /veh TMEM51 (11727254_a_at) / RFU PIWIL2 (11732686_x_at) / Fold change /veh PIWIL2 (11732686_x_at) / RFU ORM1 (11744905_x_at) / Fold change /veh ORM1 (11744905_x_at) / RFU CCDC152 (11743942_at) / Fold change /veh CCDC152 (11743942_at) / RFU ECM1 (11717891_a_at) / Fold change /veh ECM1 (11717891_a_at) / RFU IL23R (11748794_a_at) / Fold change /veh IL23R (11748794_a_at) / RFU TNFAIP8L3 (11732012_x_at) / Fold change /veh TNFAIP8L3 (11732012_x_at) / RFU MBOAT4 (11741988_at) / Fold change /veh MBOAT4 (11741988_at) / RFU 11764193_at / Fold change /veh 11764193_at / RFU TMEM53 (11763286_at) / Fold change /veh TMEM53 (11763286_at) / RFU MAGEB2 (11727129_at) / Fold change /veh MAGEB2 (11727129_at) / RFU TMEM200A (11744735_a_at) / Fold change /veh TMEM200A (11744735_a_at) / RFU CCDC152 (11751479_a_at) / Fold change /veh CCDC152 (11751479_a_at) / RFU FAM211A (11726209_a_at) / Fold change /veh FAM211A (11726209_a_at) / RFU RGS16 (11746705_a_at) / Fold change /veh RGS16 (11746705_a_at) / RFU VCAN (11755009_s_at) / Fold change /veh VCAN (11755009_s_at) / RFU RHOB (11743442_s_at) / Fold change /veh RHOB (11743442_s_at) / RFU RGS16 (11720943_a_at) / Fold change /veh RGS16 (11720943_a_at) / RFU RGS16 (11720944_at) / Fold change /veh RGS16 (11720944_at) / RFU, VPS4B / Fold change vs veh, VPS4B / RFU, CREB1 / Fold change vs veh, CREB1 / RFU, DNAJC13 / Fold change vs veh, DNAJC13 / RFU, GNAQ / Fold change vs veh, GNAQ / RFU, CDK5R1 / Fold change vs veh, CDK5R1 / RFU, ZRANB3 / Fold change vs veh, ZRANB3 / RFU, CUL4A / Fold change vs veh, CUL4A / RFU, CCNY / Fold change vs veh, CCNY / RFU, UFL1 / Fold change vs veh, UFL1 / RFU, COG3 / Fold change vs veh, COG3 / RFU, DIAPH2 / Fold change vs veh, DIAPH2 / RFU, SKA2 / Fold change vs veh, SKA2 / RFU, AFF3 / Fold change vs veh, AFF3 / RFU, LMF1 / Fold change vs veh, LMF1 / RFU, IPO11 / Fold change vs veh, IPO11 / RFU, DFFB / Fold change vs veh, DFFB / RFU, FOXP1 / Fold change vs veh, FOXP1 / RFU, CARD8 / Fold change vs veh, CARD8 / RFU, STRN3 / Fold change vs veh, STRN3 / RFU, ADK / Fold change vs veh, ADK / RFU, RASSF2 / Fold change vs veh, RASSF2 / RFU, WIPF1 / Fold change vs veh, WIPF1 / RFU, LARP1B / Fold change vs veh, LARP1B / RFU, RASA1 / Fold change vs veh, RASA1 / RFU, RB1 / Fold change vs veh, RB1 / RFU, PPFIA1 / Fold change vs veh, PPFIA1 / RFU, MAT2A / Fold change vs veh, MAT2A / RFU, CCT5 / Fold change vs veh, CCT5 / RFU, WDR92 / Fold change vs veh, WDR92 / RFU, CUX1 / Fold change vs veh, CUX1 / RFU, TTC7A / Fold change vs veh, TTC7A / RFU, TMEM135 / Fold change vs veh, TMEM135 / RFU, DEPTOR / Fold change vs veh, DEPTOR / RFU, CPM / Fold change vs veh, CPM / RFU, DNAJB6 / Fold change vs veh, DNAJB6 / RFU, CACNA2D3 / Fold change vs veh, CACNA2D3 / RFU, DTX4 / Fold change vs veh, DTX4 / RFU, TFCP2 / Fold change vs veh, TFCP2 / RFU, GMCL1 /// GMCL1P1 / Fold change vs veh, GMCL1 /// GMCL1P1 / RFU, AEBP2 / Fold change vs veh, AEBP2 / RFU, SNHG1 /// SNORD22 /// SNORD25 /// SNORD26 /// SNORD27 /// SNORD28 /// SNORD29 /// SNORD31 / Fold change vs veh, SNHG1 /// SNORD22 /// SNORD25 /// SNORD26 /// SNORD27 /// SNORD28 /// SNORD29 /// SNORD31 / Fold change (Aza/veh), C12orf56 (ProbeSet 11735607_a_at) / Fold change (ACY-1035/veh), C12orf56 (ProbeSet 11735607_a_at) / Fold change (Aza/veh), FGFR1OP (ProbeSet 11751329_s_at) / Fold change (ACY-1035/veh), FGFR1OP (ProbeSet 11751329_s_at) / Fold change (Aza/veh), VPS36 (ProbeSet 11739960_a_at) / Fold change (ACY-1035/veh), VPS36 (ProbeSet 11739960_a_at) / RFU SYPL1 (11715823_x_at) / Fold change /veh SYPL1 (11715823_x_at) / RFU IGFBP7 (11715501_s_at) / Fold change /veh IGFBP7 (11715501_s_at) / RFU REEP3 (11722064_at) / Fold change /veh REEP3 (11722064_at) / RFU IGLL1 (11728026_x_at) / Fold change /veh IGLL1 (11728026_x_at): dose or concentration left out as unconfirmed. It is filed as cell-based, human.

The record followed here is article PMC5218480 (PLoS ONE, 2017).

Take `Nc1ncn([C@@H]2O[C@H](CO)[C@@H](O)[C@H]2O)c(=O)n1` [azacitidine]: the “Fold change vs veh, RNGTT” value came to 1.02.
